Data on 2 compounds can be found in patent US5336769A, “Xanthine derivatives” (Kyowa Hakko Kogyo Co., Ltd., priority 1992, dated 1994).

The test system of series [1] is scopolamine-induced amnesia models. The series is described as follows: Anti-dementia effect in scopolamine-induced amnesia models, step-through type passive avoidance (recall trial). The format is in vivo, Male Wistar rats. The settings on record: oral, scopolamine 1 mg/kg i.p., 24 h after acquisition trial. On the procedure: The effect of Compound (I) on dementia was determined by scopolamine-induced amnesia models (Basic, Clinical, and Therapeutic Aspects of Alzheimer's and Parkinson's Diseases: Vol. 2; T. Nagatsu, et al. edt; pp449; Plenum Press New York; 1990).
[…] The test was performed with a step-through type passive avoidance apparatus (the bright and dark box).
The bright and dark box was made up of a bright compartment (25×25×25 cm) lighted by 4W white fluorescent light and a dark compartment (25×25×25 cm). […] In order to give a foot shock, the electric current (2 mA: 2 sec) may be passed through the grid floor of the dark compartment.
The compound to be tested was suspended in 0.3% aqueous solution of carboxymethyl cellulose (CMC) and the suspension was orally administered 60 minutes before the acquisition trial. Only 0.3% CMC was given to the control group.
Amnesia-inducing treatment was carried out by intraperitoneally administering 1 mg/kg of scopolamine 30 minutes before the following acquisition trial.
The training for acquisition of learning (acquisition trial) was carried out. The rat was introduced into the bright compartment, and after 5 to 10 seconds, the guillotine door was opened. The rat in the bright compartment rapidly moved into the dark compartment. As soon as the whole body of the rat entered the dark compartment, the guillotine door was closed and an electric current of 2 mA was passed through the grid floor for two seconds (foot shock). Immediately after the foot shock, the rat was taken out of the dark compartment.
The test trial for observing the retention and recall of the memory (recall trial) was carried out as follows. Twenty-four hours after the acquisition trial, the rat was placed in the bright compartment and the guillotine door was opened. The length of time before the rat entered the dark compartment (latency) was measured. The latency was measured up to 600 seconds and the latency longer than 600 seconds was recorded as 600 seconds.
In the experiment, the amnesia control group had undergone the amnesia-inducing treatment and the normal control group had not undergone the amnesia-inducing treatment.
The anti-dementia effect was evaluated by Mann Whitney U-test to determine whether there was a significant difference in latency between the test compound treated group and the amnesia control group.

The test system of another series is dd strain male mice. The series can be described thus: Acute Toxicity Test, minimum lethal dose (MLD). Type of series: in vivo. The settings on record: oral, mortality 7 days after administration. From the text: Compounds 1 and 5 were orally administered to dd strain male mice (body weight: 20±1 g, 3 mice/group). The mortality was observed 7 days after the administration to determine the minimum lethal dose (MLD).

On to `CCCn1c(=O)c2nc(C3CCCC3)[nH]c2n(CCc2ccc(NC(C)=O)cc2)c1=O` [Compound 1, 3-(4-acetylaminophenethyl)-8-cyclopentyl 1-propylxanthine], for which the “Recall trial mean reaction latency” value was determined as 137.3 ± 44.5 s in series [1] (0.02 mg/Kg, 17 animals); 174.8 ± 56.1 s in series [1] (0.08 mg/Kg, 18 animals); 130.4 ± 38.5 s in series [1] (0.31 mg/Kg, 18 animals); 170.3 ± 50.4 s in series [1] (1.25 mg/Kg, 17 animals); 187.2 ± 50.2 s in series [1] (5.0 mg/Kg, 18 animals); 116.2 ± 43.4 s in series [1] (20.0 mg/Kg, 17 animals). For the same compound, the “minimum lethal dose (MLD)” value in the series with dd strain male mice was > 300 mg/kg.
On to `CCCn1c(=O)c2[nH]c(C3CCCC3)nc2n(CCc2ccc(NC(=O)C3CCCC3)cc2)c1=O` [Compound 5, 3-[4-(cyclopentanecarbonylamino)-phenethyl]-8-cyclopentyl-1-propylxanthine], for which the “minimum lethal dose (MLD)” value in the series on dd strain male mice was > 300 mg/kg.
